Assay results from the supplement of paper PMC10307832.

Tests used:
Test in all cases: relative viability (nuclei count vs DMSO), 5 days (fraction); higher = more cells survive
[1] = compound: CC(C)N(CCCNC(=O)Nc1ccc(C(C)(C)C)cc1)C[C@H]1O[C@@H](n2ccc3c(N)ncnc32)[C@H](O)[C@@H]1O + NC(=O)Nc1cc(-c2cccc(F)c2)sc1C(=O)N[C@H]1CCCNC1 [AZD7762] (partner 0.2 µM)
In short: (§1)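 Relative viability is defined as nuclei in treated wells over nuclei in vehicle wells. Duplicate plates were run and medians reported. Lung cancer cell lines in 1536-well plates were dosed by pin tool one day after seeding, with one drug or with a fixed anchor-drug dose plus five library-drug doses (not always all listed) in √10 steps, and nuclei were counted after 5 days.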

Shikonin + Pictilisib = compound: CC(C)=CC[C@@H](O)C1=CC(=O)c2c(O)ccc(O)c2C1=O [Shikonin] + CS(=O)(=O)N1CCN(Cc2cc3nc(-c4cccc5[nH]ncc45)nc(N4CCOCC4)c3s2)CC1 [Pictilisib] (partner 1 µM)
In short: as §1

Shikonin + Decitabine = compound: CC(C)=CC[C@@H](O)C1=CC(=O)c2c(O)ccc(O)c2C1=O [Shikonin] + Nc1ncn([C@H]2C[C@H](O)[C@@H](CO)O2)c(=O)n1 [Decitabine] (partner 2 µM)
In short: as §1

[2] = compound: CC(C)N(CCCNC(=O)Nc1ccc(C(C)(C)C)cc1)C[C@H]1O[C@@H](n2ccc3c(N)ncnc32)[C@H](O)[C@@H]1O + CC(=O)Nc1cccc(-n2c(=O)n(C3CC3)c(=O)c3c(Nc4ccc(I)cc4F)n(C)c(=O)c(C)c32)c1 [Trametinib] (partner 0.02 µM)
In short: as §1

Cell Line	relative viability ([1]; first compound 0.08 µM)	relative viability ([1]; first compound 0.253 µM)	relative viability ([1]; first compound 0.8 µM)	relative viability ([1]; first compound 2.53 µM)	relative viability ([1]; first compound 8 µM)	relative viability (Shikonin + Pictilisib; first compound 0.01 µM)	relative viability (Shikonin + Pictilisib; first compound 0.1 µM)	relative viability (Shikonin + Pictilisib; first compound 0.3162 µM)	relative viability (Shikonin + Pictilisib; first compound 1 µM)	relative viability (Shikonin + Decitabine; first compound 0.01 µM)	relative viability (Shikonin + Decitabine; first compound 0.1 µM)	relative viability (Shikonin + Decitabine; first compound 0.3162 µM)	relative viability (Shikonin + Decitabine; first compound 1 µM)	relative viability ([2]; first compound 0.08 µM)	relative viability ([2]; first compound 0.253 µM)	relative viability ([2]; first compound 0.8 µM)	relative viability ([2]; first compound 2.53 µM)	relative viability ([2]; first compound 8 µM)
LC-2-ad	0.834	0.802	0.677	0.787	0.771	0.336	0.506	0.469	0.408	0.75	0.849	0.874	0.89	0.848	0.936	0.895	0.917	0.855
LCLC-97TM1	0.233	0.266	0.354	0.235	0.147	0.172	0.143	0.266	0.169	0.257	0.232	0.215	0.242	0.179	0.202	0.184	0.193	0.187
LCLC-103H	0.745	0.805	0.686	0.701	0.727	0.503	0.708	0.677	0.676	0.711	0.727	0.74	0.75	0.679	0.708	0.662	0.653	0.679
LK-2		0.332	0.628	0.428	0.322	0.531	0.546	0.619	0.476	0.297	0.272	0.289	0.352	0.879	0.493	0.681	0.636	0.694
LOU-NH91	0.751	0.697		0.763	0.767	0.509	0.544	0.52	0.563	0.787	0.879	0.856	0.816	0.788	0.768		0.824	0.763
LU99A	0.416	0.316	0.421	0.473	0.317	0.309	0.3	0.337	0.303	0.744	1.05	0.978	0.852	0.509	0.44	0.519	0.504	0.508
LXF-289	1.1	1.1	1.09	1.12	1	0.868	0.784	0.799	0.775	0.356	0.342	0.453	0.378	0.661	0.684	0.651	0.732	0.71
NCI-H23	0.252		0.226	0.201	0.305	0.508	0.514	0.497	0.378	0.335	0.306	0.333	0.277	0.336		0.361	0.547	0.373
NCI-H322M	0.529	0.541	0.751	0.51	0.803	0.498	0.526	0.496	0.504	0.736	0.723	0.714	0.664	0.5	0.533	0.544	0.475	0.517
NCI-H358	0.454	0.538	0.569	0.565	0.491	0.297	0.366	0.281	0.343	0.178	0.23	0.218	0.19	0.135	0.137	0.132	0.13	0.138
NCI-H441	1.04	1.13		1.07	1.33	0.621	0.436	0.485	0.437	0.249	0.26	0.258	0.206	0.407	0.432		0.498	0.474
NCI-H460	0.725	0.58	0.605	0.499	0.585	0.357	0.441	0.357	0.375	0.446	0.685	0.504	0.516	0.103	0.0737	0.0752	0.127	0.129
NCI-H596	1.09	0.943	0.926	1.23	1.09	0.341	0.385	0.422	0.4	1.08	1.03	0.981	1.25	0.858	0.759	0.842	0.753	0.765
NCI-H647	0.457	0.523	0.509	0.366	0.414	0.458	0.552	0.441	0.573	0.364	0.504	0.346	0.328	0.435	0.368	0.478	0.467	0.432
NCI-H650	1.07	0.956	0.878	0.87	1.04	0.946		0.965	0.845	0.295	0.314	0.334	0.27	0.859	1.06	0.875	1.03	0.994
NCI-H727	0.634	0.624	0.649	0.328	0.694	0.326	0.353	0.311	0.431	0.893	1.02	0.927	0.883	0.36	0.424	0.416	0.349	0.396
NCI-H838	0.864	0.909	0.912	0.806	0.95	0.529	0.601	0.443	0.452	0.476	0.413	0.442	0.468	0.501	0.328	0.464	0.559	0.529
NCI-H1355	0.703	0.68	0.642	0.75	0.695	0.407	0.498	0.408	0.445	0.339	0.4	0.38	0.337	0.419	0.416	0.388	0.458	0.38

Cell Line	relative viability ([1]; first compound 0.08 µM)	relative viability ([1]; first compound 0.253 µM)	relative viability ([1]; first compound 0.8 µM)	relative viability ([1]; first compound 2.53 µM)	relative viability ([1]; first compound 8 µM)	relative viability (Shikonin + Pictilisib; first compound 0.01 µM)	relative viability (Shikonin + Pictilisib; first compound 0.1 µM)	relative viability (Shikonin + Pictilisib; first compound 0.3162 µM)	relative viability (Shikonin + Pictilisib; first compound 1 µM)	relative viability (Shikonin + Decitabine; first compound 0.01 µM)	relative viability (Shikonin + Decitabine; first compound 0.1 µM)	relative viability (Shikonin + Decitabine; first compound 0.3162 µM)	relative viability (Shikonin + Decitabine; first compound 1 µM)	relative viability ([2]; first compound 0.08 µM)	relative viability ([2]; first compound 0.253 µM)	relative viability ([2]; first compound 0.8 µM)	relative viability ([2]; first compound 2.53 µM)	relative viability ([2]; first compound 8 µM)
NCI-H1395	0.424	0.412	0.42	0.421	0.38	0.603	0.695	0.584	0.652	0.719	0.796	0.692	0.71	0.956	0.986	0.979	1.01	1.04
NCI-H1437	1.13	1.06	1.15	1.07	1.14	0.424	0.421	0.416	0.477	0.607	0.594	0.524	0.536	0.472	0.521	0.496	0.428	0.45
NCI-H1651	0.545	0.562	0.468	0.46	0.457	0.612	0.562	0.669	0.64	0.621	0.656	0.66	0.641	0.84	0.85	0.795	0.859	0.894
NCI-H1666	0.924	0.898	0.758	0.844	0.773	0.643	0.358	0.394	0.299	0.668	0.779	0.82	0.734	0.772	0.814	0.804	0.86	0.764
NCI-H1734	0.546	0.441	0.634	0.565	0.466	0.495	0.551	0.441	0.494	0.475	0.566	0.571	0.474	0.587	0.653	0.69	0.703	0.561
NCI-H1755	0.473	0.401	0.44	0.444	0.426	0.468	0.472	0.406	0.472	0.735	0.768	0.761	0.712	0.758	0.736	0.719	0.733	0.771
NCI-H1792	0.68		0.46	0.569	0.601	0.306	0.206	0.293	0.308	0.567	0.553	0.644	0.681	0.397		0.372	0.419	0.29
NCI-H1793	0.614		0.386	0.437	0.426	0.359	0.251	0.241	0.304	0.513	0.565	0.451	0.456	0.394		0.367	0.446	0.422
NCI-H1915	0.674	0.726	0.607	0.668	0.56	0.975	1.09	1.05	0.958	0.271	0.286	0.268	0.258	0.3	0.306	0.302	0.311	0.292
NCI-H1944	0.678	0.415	0.537	0.559	0.575	0.352	0.379	0.353	0.392	0.464	0.446	0.443	0.435	0.362	0.39	0.372	0.439	0.448
NCI-H1975	0.701	0.686		0.642	0.53	0.287	0.283	0.268	0.294	0.377	0.392	0.36	0.381	0.347	0.29	0.167	0.308	0.32
NCI-H1993	0.659		0.941	0.777	0.673		0.84	0.803	0.792	0.668	0.592	0.632	0.555	0.609		0.569	0.471	0.486
NCI-H2085	0.979	0.766	0.921	1.08	1	0.41	0.47	0.424	0.411	0.528	0.515	0.57	0.532	0.509	0.455	0.685	0.572	0.47
NCI-H2087	1.31	1.26	1.51	1.38	1.29	0.767	1.05	0.843	0.861	0.283	0.263	0.278	0.294	0.165	0.191	0.225	0.232	0.22
NCI-H2126	0.913	1.01	0.956	0.988	0.965	0.508	0.5	0.496	0.553	0.593	0.589	0.628	0.559	0.551	0.572	0.555	0.577	0.58
NCI-H2170	0.934	0.79	0.66	0.836	0.857	0.291	0.34	0.338	0.326	0.481	0.449	0.496	0.503	0.965	0.912	0.862	0.866	0.914
NCI-H2347	0.795	0.815	0.605	0.803	0.746	0.701	0.764	0.582	0.573	0.646	0.623	0.659	0.597	0.248	0.281	0.251	0.284	0.282
NCI-H2405	0.742	0.817	0.689	0.844	0.699	0.442	0.401	0.553	0.474	0.827	0.889	0.762	0.702	0.669	0.591	0.598	0.765	0.644
